Results on 1 compound are retold here after patent US8592419B2, “Ceramides and apoptosis-signaling ligand” (MUSC Foundation for Research Development, priority 2004, dated 2013).

The test system of data set [1] is DU145 xenografts. Kind of data set: DU145 prostate cancer xenografts in nude mice. The source says:
One of the problems with cancer gene therapy as it is currently practiced is the issue of delivery of gene therapy vectors to every tumor cell in order to effect death of the tumor. […] The inventors devised a model of molecular cell killing in a solid tumor in which only perhaps up to 30% of the cells are infected by the virus. Since the ceramide analogs of the invention are acid CDase inhibitors which sensitize the cells to this type of cell death, an in vivo experiment in which prostate cancer xenografts, in this case DU145 cells, were grown in nude mice and treated sequentially with the acid Cdase inhibitor LCL204 followed by the AdGFPFasL virus. […] The LCL204 was administered at 0, 72 and 144 hours and the virus (1×10^9 pfu) at 10 and 82 hours.

Data set [2] deals with cathepsin B. Nature of the data set: Cathepsin B translocation to cytosol (subcellular fractionation, Western blot, activity assay). The settings on record: DU145 cells. Type of data set: cell-based, human. The method, then:
Subcellular fractionation. For cytochrome c immunoblot, cells were seeded and treated as described above. Cells were harvested at 4, 12, or 24 hours after treatment as described previously (62) and proteins (15 μg) were separated by gel electrophoresis and immunoblotted for cytochrome c as above. The protocol for separating cytosolic and heavy membrane fractions is a modified version of that used by Desahger et al. (63). Briefly, cells were seeded and treated in 60 mm plates as described above. Cells were harvested at 0, 0.5, 1, and 2 hours after treatment, washed once in PBS, and gently resuspended in isotonic mitochondrial buffer (210 mM mannitol, 70 mM sucrose, 1 mM EDTA, 10 mM HEPES, pH 7.0) supplemented with protease inhibitors. Cells were then transferred to 1.5 mL microcentrifuge tubes and homogenized using 40 strokes with a polished (fine grain sandpaper) Teflon pestle. Fractions were separated using differential centrifugation as described in the reference. All fractions were stored at −80° C. Cytosolic and heavy membrane fractions (30 and 15 μg, respectively) were separated on NuPAGE gels and immunoblotted as described above. […] Enzyme activity per 50 μg lysate was measured using the fluorogenic cathepsin B substrate 111 (Calbiochem) according to the manufacturer's protocol.

The subject of data set [3] is lysosomes of DU145 cells. Nature of the data set: Lysosomal stability assay (LysoTracker Red). Type of data set: cell-based, human. The method, then: Lysosoinal stability assay. Lysosomal stability was measured using the fluorescent dye LysoTracker Red (LTR). Cells were seeded overnight in 60 mm plates. The next day, medium was removed and replaced with medium containing 200 nM LTR. Cells were loaded with LTR for 30 minutes at 37° C. LTR was removed and cells were washed once with PBS, then medium containing the treatment was added for the indicated time. After treatment, cells were lifted with trypsin, washed once in PBS, and resuspended in 0.5 mL growth medium. LTR fluorescence was measured using FACS analysis (564-606 nm) as above. A decrease in fluorescence intensity corresponded to an increase in lysosomal pH, and a minimum of 10,000 events were scored for each sample.

Data set [4] has as its system p53. Nature of the data set: Immunoblot of p53. Type of data set: cell-based, human. The following applies: DU145 cells, 10 μM. The method, then:
Immunoblot analysis. Cells were seeded in 60mm plates as described above and treated accordingly. Cells were lifted by gently scraping the plates, washed once with ice cold PBS and then lysed in lysis buffer (PBS, 1% Triton X-100, 10% glycerol) containing protease inhibitors pepstatin A (0.5 μg/ml), leupeptin (0.5 μg/ml), aprotinin (5 μg/ml), and PMSF (100 μg/ml) for 10 minutes on ice. Insoluble material was removed by centrifugation at 14,000 rpm for 15 minutes at 4° C. The supernatants were then supplemented with SDS at a final concentration of 2% and stored at −80° C. Protein concentrations were determined using the DC Protein Assay (BioRad Laboratories; Hercules, CA, USA) according to the manufacturer's instructions. 50 μg of protein per sample (unless otherwise indicated) were separated on NuPAGE 4-12% Bis-Tris gels (Invitrogen; Carlsbad, CA, USA) and transferred to nitrocellulose membranes (BioRad). Following transfer, membranes were blocked for 1 hour at room temperature in Tris-buffered saline (TBS) containing 0.1% Tween-20 and 5% nonfat dry milk and incubated overnight at 4° C. with primary antibody at a dilution of 1:2,000(actin), 1:1,000(cytochrome c, COX IV, Bax, Bak, p53, p38, P-p38), 1:500(P-JNK, JNK), 1:250 (AC, p73), or 1:400(LAMP-1, cathepsin B). Overnight incubations were performed in 5% milk in TBS-Tween. […]
On the technique in general: In western blotting, separated proteins are transferred to a membrane and probed.

For data set [5], the system named is DU145 cells. Nature of the data set: Cell death by MTS assay, ceramide analog combined with AdGFPFasL virus. Type of data set: cell-based, human. On the procedure: LCL102, a ceramidase inhibitor, which acts to increasing intracellular ceramide levels by […], were tested in this system. This molecule was highly efficient at activating cell death in DU145 cells at nontoxic doses if combined with AdGFPFasL virus at MOIs achievable in vivo. DU145 cells growing in 96 well plates at 1×10^4 cells/well are treated with either media alone or LCL102 at 2 uM for 48 hours followed by AdGFPFasL for 24 hours at the MOI (5-80). Cell death is assayed by the MTS assay. At 2 uM LCL102 and 5MOI of virus, cell death is amplified 4-fold compared to LCL102 alone (FIG. 14).

Structures are written as SMILES.

`CCCCCCCCCCCCCCN[C@H](CO)[C@H](O)c1ccc([N+](=O)[O-])cc1.Cl` [LCL204, (1R,2R) D-threo-2-N-Tetradecylamino-1-(4′-nitrophenyl)-1,3-propandiol hydrochloride]: the “tumor burden, combination of LCL204 and AdGFPFasL virus” value in data set [1] (LCL204 at 0, 72 and 144 hours followed by virus at 10 and 82 hours) was “effectively reduce the tumor burden”. Besides, in data set [1] (LCL204 systemically at 0, 72 and 144 hours, virus 1×10^9 pfu at 10 and 82 hours), the “tumor growth, single agent” value was “some modest effects”. Also, the “observable effect on the animal” value in data set [1] (up to 75 mg/kg) is “no observable effect on the animal”. In data set [2] (10 μM, enzyme activity assay), the “time within which cytosolic cathepsin B activity increased” value is at most 30 min. In addition, in data set [2] (Western blot), the “time within which active cathepsin B was detected in the cytosolic fraction” value was at most 30 min. Further, the “onset of the effect on lysosomal pH” value in data set [3] (DU145 cells, 10 μM) was “as early as five minutes”. The “shift in LTR fluorescence (rise in lysosomal pH)” value in data set [3] (DU145 cells, 1 hour, LCL204 10 μM, C6-ceramide 30 μM, B13 20 μM) was “induced the shift in LTR fluorescence”. Further, the “lysosome destabilization versus concentration” value in data set [3] (DU145 cells, one hour) is recorded as “destabilized lysosomes in a concentration-dependent manner”. Moreover, the “earliest destabilization of the lysosomes” value in data set [3] (prostate cancer cells) came out at 5 min. The p53 induction entry in data set [4] was “induced p53 in DU145 cells after four hours”. For the same compound, the “increase in cancer cell death” value in data set [5] (2 μM in combination with AdGFPFasL virus at low MOIs) is reported as at most 10 fold. The viral infectivity result in data set [5] (DU145 cells) is listed as “not modifying viral infectivity”. Moreover, in data set [5] (in vitro, subtoxic doses), the “increase of the ability of AdGFPFasL to kill tumor cells” value is reported as “as much as ten-fold”.
